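Growth conditions: 96-well plates. Treatment: test compound, 48 hours, 5 concentrations. Analysis: linear interpolation between bracketing concentrations; unreached endpoints set to highest concentration. TGI is the concentration that stops growth completely.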
Legend:
Experiment in all cases: DTP human tumour cell line panel, 48 h
786-0 renal = tested on: 786-0 renal
A498 renal = tested on: A498 renal
A549 NSCLC = tested on: A549 NSCLC
ACHN renal = tested on: ACHN renal
CAKI-1 renal = tested on: CAKI-1 renal
CCRF-CEM leukemia = tested on: CCRF-CEM leukemia
COLO 205 colon = tested on: COLO 205 colon
DLD-1 colon = tested on: DLD-1 colon
DMS 114 small cell lung = tested on: DMS 114 small cell lung
DMS 273 small cell lung = tested on: DMS 273 small cell lung
HCC-2998 colon = tested on: HCC-2998 colon
HCT-116 colon = tested on: HCT-116 colon
HCT-15 colon = tested on: HCT-15 colon
HL-60(TB) leukemia = tested on: HL-60(TB) leukemia
HOP-18 NSCLC = tested on: HOP-18 NSCLC
HOP-62 NSCLC = tested on: HOP-62 NSCLC
HOP-92 NSCLC = tested on: HOP-92 NSCLC
HT29 colon = tested on: HT29 colon
IGROV1 ovarian = tested on: IGROV1 ovarian
K-562 leukemia = tested on: K-562 leukemia
KM12 colon = tested on: KM12 colon
KM20L2 colon = tested on: KM20L2 colon
LOX IMVI melanoma = tested on: LOX IMVI melanoma
LXFL 529 NSCLC = tested on: LXFL 529 NSCLC
M14 melanoma = tested on: M14 melanoma
M19-MEL melanoma = tested on: M19-MEL melanoma
MALME-3M melanoma = tested on: MALME-3M melanoma
MOLT-4 leukemia = tested on: MOLT-4 leukemia
NCI-H226 lung = tested on: NCI-H226 lung
NCI-H460 lung = tested on: NCI-H460 lung
NCI-H522 lung = tested on: NCI-H522 lung
OVCAR-4 ovarian = tested on: OVCAR-4 ovarian
OVCAR-5 ovarian = tested on: OVCAR-5 ovarian
OVCAR-8 ovarian = tested on: OVCAR-8 ovarian
RPMI-8226 leukemia = tested on: RPMI-8226 leukemia
RXF 393 renal = tested on: RXF 393 renal
SF-268 CNS = tested on: SF-268 CNS
SF-295 CNS = tested on: SF-295 CNS
SF-539 CNS = tested on: SF-539 CNS
SK-MEL-2 melanoma = tested on: SK-MEL-2 melanoma
SK-MEL-5 melanoma = tested on: SK-MEL-5 melanoma
SK-OV-3 ovarian = tested on: SK-OV-3 ovarian
SN12C renal = tested on: SN12C renal
SNB-19 CNS = tested on: SNB-19 CNS
SNB-75 CNS = tested on: SNB-75 CNS
SNB-78 CNS = tested on: SNB-78 CNS
SW-620 colon = tested on: SW-620 colon
TK-10 renal = tested on: TK-10 renal
U251 CNS = tested on: U251 CNS
UACC-257 melanoma = tested on: UACC-257 melanoma
UACC-62 melanoma = tested on: UACC-62 melanoma
UO-31 renal = tested on: UO-31 renal
BT-549 breast = tested on: BT-549 breast
DU-145 prostate = tested on: DU-145 prostate
EKVX NSCLC = tested on: EKVX NSCLC
HS 578T breast = tested on: HS 578T breast
MCF7 breast = tested on: MCF7 breast
MDA-MB-231 breast = tested on: MDA-MB-231 breast
MDA-MB-435 = tested on: MDA-MB-435
MDA-N = tested on: MDA-N
NCI-H23 lung = tested on: NCI-H23 lung
NCI/ADR-RES ovarian = tested on: NCI/ADR-RES ovarian
OVCAR-3 ovarian = tested on: OVCAR-3 ovarian
PC-3 prostate = tested on: PC-3 prostate
SK-MEL-28 melanoma = tested on: SK-MEL-28 melanoma
SR leukemia = tested on: SR leukemia
T-47D breast = tested on: T-47D breast

N#CC1(C#N)C=CC(=C2OCC3CCCN23)C=C1 (stereo unspecified)
TGI (786-0 renal): > 100 µM
TGI (A498 renal): > 100 µM
TGI (A549 NSCLC): > 100 µM
TGI (ACHN renal): > 100 µM
TGI (CAKI-1 renal): > 100 µM
TGI (CCRF-CEM leukemia): > 100 µM
TGI (COLO 205 colon): > 100 µM
TGI (DLD-1 colon): > 100 µM
TGI (DMS 114 small cell lung): > 100 µM
TGI (DMS 273 small cell lung): > 100 µM
TGI (HCC-2998 colon): > 100 µM
TGI (HCT-116 colon): > 100 µM
TGI (HCT-15 colon): > 100 µM
TGI (HL-60(TB) leukemia): > 100 µM
TGI (HOP-18 NSCLC): > 100 µM
TGI (HOP-62 NSCLC): > 100 µM
TGI (HOP-92 NSCLC): > 100 µM
TGI (HT29 colon): > 100 µM
TGI (IGROV1 ovarian): > 100 µM
TGI (K-562 leukemia): > 100 µM
TGI (KM12 colon): > 100 µM
TGI (KM20L2 colon): > 100 µM
TGI (LOX IMVI melanoma): > 100 µM
TGI (LXFL 529 NSCLC): > 100 µM
TGI (M14 melanoma): > 100 µM
TGI (M19-MEL melanoma): > 100 µM
TGI (MALME-3M melanoma): > 100 µM
TGI (MOLT-4 leukemia): > 100 µM
TGI (NCI-H226 lung): > 100 µM
TGI (NCI-H460 lung): > 100 µM
TGI (NCI-H522 lung): > 100 µM
TGI (OVCAR-4 ovarian): > 100 µM
TGI (OVCAR-5 ovarian): > 100 µM
TGI (OVCAR-8 ovarian): > 100 µM
TGI (RPMI-8226 leukemia): > 100 µM
TGI (RXF 393 renal): > 100 µM
TGI (SF-268 CNS): > 100 µM
TGI (SF-295 CNS): > 100 µM
TGI (SF-539 CNS): > 100 µM
TGI (SK-MEL-2 melanoma): > 100 µM
TGI (SK-MEL-5 melanoma): > 100 µM
TGI (SK-OV-3 ovarian): > 100 µM
TGI (SN12C renal): > 100 µM
TGI (SNB-19 CNS): > 100 µM
TGI (SNB-75 CNS): > 100 µM
TGI (SNB-78 CNS): > 100 µM
TGI (SW-620 colon): > 100 µM
TGI (TK-10 renal): > 100 µM
TGI (U251 CNS): > 100 µM
TGI (UACC-257 melanoma): > 100 µM
TGI (UACC-62 melanoma): > 100 µM
TGI (UO-31 renal): > 100 µM

c1ccc2c(c1)c1c3c(c4c(n32)=NCCN4)CCC1
TGI (786-0 renal): > 100 µM
TGI (A498 renal): 65.8 µM
TGI (A549 NSCLC): > 100 µM
TGI (ACHN renal): > 100 µM
TGI (BT-549 breast): > 100 µM
TGI (CAKI-1 renal): > 100 µM
TGI (CCRF-CEM leukemia): > 100 µM
TGI (COLO 205 colon): > 100 µM
TGI (DU-145 prostate): > 100 µM
TGI (EKVX NSCLC): > 100 µM
TGI (HCC-2998 colon): > 100 µM
TGI (HCT-116 colon): > 100 µM
TGI (HCT-15 colon): > 100 µM
TGI (HL-60(TB) leukemia): > 100 µM
TGI (HOP-62 NSCLC): > 100 µM
TGI (HOP-92 NSCLC): 88 µM
TGI (HS 578T breast): > 100 µM
TGI (HT29 colon): 56.7 µM
TGI (IGROV1 ovarian): > 100 µM
TGI (K-562 leukemia): > 100 µM
TGI (KM12 colon): > 100 µM
TGI (LOX IMVI melanoma): 43.3 µM
TGI (M14 melanoma): > 100 µM
TGI (MALME-3M melanoma): > 100 µM
TGI (MCF7 breast): 98.2 µM
TGI (MDA-MB-231 breast): 98.9 µM
TGI (MDA-MB-435): > 100 µM
TGI (MDA-N): 59.3 µM
TGI (MOLT-4 leukemia): 60.9 µM
TGI (NCI-H226 lung): 80.9 µM
TGI (NCI-H23 lung): > 100 µM
TGI (NCI-H460 lung): > 100 µM
TGI (NCI-H522 lung): 61.2 µM
TGI (NCI/ADR-RES ovarian): 99.7 µM
TGI (OVCAR-3 ovarian): > 100 µM
TGI (OVCAR-4 ovarian): > 100 µM
TGI (OVCAR-5 ovarian): > 100 µM
TGI (OVCAR-8 ovarian): > 100 µM
TGI (PC-3 prostate): > 100 µM
TGI (RPMI-8226 leukemia): 63.2 µM
TGI (RXF 393 renal): 60.8 µM
TGI (SF-268 CNS): > 100 µM
TGI (SF-295 CNS): > 100 µM
TGI (SF-539 CNS): > 100 µM
TGI (SK-MEL-2 melanoma): 66.2 µM
TGI (SK-MEL-28 melanoma): > 100 µM
TGI (SK-MEL-5 melanoma): > 100 µM
TGI (SK-OV-3 ovarian): > 100 µM
TGI (SN12C renal): 49.4 µM
TGI (SNB-19 CNS): > 100 µM
TGI (SNB-75 CNS): 71.5 µM
TGI (SR leukemia): 47.4 µM
TGI (SW-620 colon): > 100 µM
TGI (T-47D breast): 92.1 µM
TGI (TK-10 renal): > 100 µM
TGI (U251 CNS): > 100 µM
TGI (UACC-257 melanoma): > 100 µM
TGI (UACC-62 melanoma): > 100 µM
TGI (UO-31 renal): > 100 µM

From PubChem BioAssay (NCI)
